Results from BindingDB's records for doi:10.1016/s0960-894x(00)00660-0 (Clinical Research Institute of Montreal, 2001).
Peptide text beside a SMILES is read from it. * marks the point of attachment. X1 = Cc1cc(O)cc(C)c1C[C@H](C)C(=O)*

Legend:
[1] = Tested for binding affinity towards Opioid receptor mu 1 in rat and guinea pig brain membrane binding assays
[2] = Tested for binding affinity towards Opioid receptor delta 1 in rat and guinea pig brain membrane binding assays

Structure (SMILES): Cc1cc(O)cc(C)c1C[C@H](C)C(=O)N[C@@H](C)C(=O)NCC(=O)N[C@@H](Cc1ccccc1)C(=O)N[C@@H](CC(C)C)C(N)=O [(S)-2-[(S)-2-(2-{(S)-2-[(S)-3-(4-Hydroxy-2,6-dimethyl-phenyl)-2-methyl-propionylamino]-propionylamino}-acetylamino)-3-phenyl-propionylamino]-4-methyl-pentanoic acid amide] (X1-AGFL-NH2)
- Ki [1]: 192 nM
- Ki [2]: 12 nM
